As usually defined, the IC50 is the point on the concentration scale where inhibition reaches its midpoint.

The first assay deals with HCV subgenomic replication. In words: Cell based HCV replication assay (subgenomic replicon in Huh-7 cells, NS3 Cell-ELISA). The following applies: Table 1, 16 membered macrocycles; activity ranges; read-out: IC50* (nM), Inhibition of HCV subgenomic replication. The method, boiled down: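 Huh-7 cells stably carrying the I377neo/NS3-3′/wt subgenomic replicon, seeded at 10^4 cells/well in DMEM/10% FCS and exposed to inhibitor for 96 h. NS3 expression was measured by Cell-ELISA (mAb 10E5/24, alkaline phosphatase, absorbance 405/620 nm), in duplicate. IC50 was fitted to the Hill equation, with background from parental Huh-7 cells.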
On to `CCN1CCN(CC)C2COc3ccccc3-c3c(C4CCCCC4)c4ccc(cc4n3C2)C(=O)NS(=O)(=O)N(C)CC1` [Example 107, (7R)-14-cyclohexyl-21,24-diethyl-18-methyl-7,8-dihydro-6H-7,11-(epiminoethanoiminoethanoiminothioiminomethano)-indolo[1,2-e][1,5]benzoxazocin-15-one 17,17-dioxide], for which the IC50 is under 25 nM. For the molecule `CN1CCN(CCO)CCN(C)S(=O)(=O)NC(=O)c2ccc3c(C4CCCCC4)c4n(c3c2)CC1COc1ccccc1-4` [Example 103, (7R)-14-cyclohexyl-21-(2-hydroxyethyl)-18,24-dimethyl-7,8-dihydro-6H-7,11-(epiminoethanoiminoethanoiminothioiminomethano)-indolo[1,2-e][1,5]benzoxazocin-15-one 17,17-dioxide], the IC50 was under 25 nM.

Still in this assay, the particulars now being: Table 2, various macrocycles; activity ranges; read-out: IC50* (nM), Inhibition of HCV subgenomic replication.
In the case of `CCCc1cccc2c1OCC1Cn3c-2c(C2CCCCC2)c2ccc(cc23)C(=O)NS(=O)(=O)N(C)CCN(C)CCN1C` [Example 212, (7R)-14-cyclohexyl-18,21,24-trimethyl-4-propyl-7,8-dihydro-6H-7,11-(epiminoethanoiminoethanoiminothioiminomethano)-indolo[1,2-e][1,5]benzoxazocin-15-one 17,17-dioxide], the half-maximal inhibitory concentration (IC50) fell in the range of 25 to 150 nM.

`CC(C)N1CCN(C)[C@H]2COc3cc(F)ccc3-c3c(C4CCCCC4)c4ccc(cc4n3C2)C(=O)NS(=O)(=O)N(C)CC1` [Example 207, (7R)-14-cyclohexyl-3-fluoro-21-isopropyl-18,24-dimethyl-7,8-dihydro-6H-7,11-(epiminoethanoiminoethanoiminothioiminomethano)-indolo[1,2-e][1,5]benzoxazocin-15-one 17,17-dioxide]: the IC50 is under 25 nM. Still for that read-out and setting: with `CN1CCN(Cc2ccccc2)CCN(C)S(=O)(=O)NC(=O)c2ccc3c(C4CCCCC4)c4n(c3c2)CC1Cc1ccccc1-4` (centres unmarked) [Example 201, 20-benzyl-13-cyclohexyl-17,23-dimethyl-6,7-dihydro-5H-6,10-(epiminoethanoiminoethanoiminothioiminomethano)-indolo[2,1-a][2]benzazepin-14-one 16,16-dioxide] the figure was over 500 nM; with `CCN1CCN(C)[C@H]2COc3cc(C)ccc3-c3c(C4CCCCC4)c4ccc(cc4n3C2)C(=O)NS(=O)(=O)N(C)CC1` [Example 215, (7R)-14-cyclohexyl-21-ethyl-3,18,24-trimethyl-7,8-dihydro-6H-7,11-(epiminoethanoiminoethanoiminothioiminomethano)-indolo[1,2-e][1,5]benzoxazocin-15-one 17,17-dioxide], under 25 nM.

The assay is the same for the next values; noted with them: Table 4, various macrocycles; activity ranges; read-out: IC50* (nM), Inhibition of HCV subgenomic replication.
With `CCN1CCN(C)C2COc3c(F)cccc3-c3c(C4CCCCC4)c4ccc(cc4n3C2)C(=O)NS(=O)(=O)N(C)CC1` [Example 404, (7R)-14-cyclohexyl-21-ethyl-4-fluoro-18,24-dimethyl-7,8-dihydro-6H-7,11-(epiminoethanoiminoethanoiminothioiminomethano)-indolo[1,2-e][1,5]benzoxazocin-15-one 17,17-dioxide], the 50% inhibitory concentration (IC50) was under 25 nM.

Still in this assay, the particulars now being: Table 5, various macrocycles; activity ranges; read-out: IC50* (nM), Inhibition of HCV subgenomic replication.
Consider `Cc1cccc2c1OCC1Cn3c-2c(C2CCCCC2)c2ccc(cc23)C(=O)NS(=O)(=O)N(C)CCNCCN1C` [Example 515, (7R)-14-cyclohexyl-4,18,24-trimethyl-7,8-dihydro-6H-7,11-(epiminoethanoiminoethanoiminothioiminomethano)-indolo[1,2-e][1,5]benzoxazocin-15-one 17,17-dioxide], for which the concentration for half-maximal inhibition (IC50) is under 25 nM. On to `CN1CCCC2COc3c(OCCN4CCCC4)cccc3-c3c(C4CCCCC4)c4ccc(cc4n3C2)C(=O)NS(=O)(=O)N(C)CC1` [Example 511, (7R)-14-cyclohexyl-18,21-dimethyl-4-(2-pyrrolidin-1-ylethoxy)-7,8-dihydro-6H-7,11-(propanoiminoethanoiminothioiminomethano)indolo[1,2-e][1,5]benzoxazocin-15-one 17,17-dioxide], for which the IC50 is under 25 nM.

For the molecule `CC(C)N1CCCN(C)S(=O)(=O)NC(=O)c2ccc3c(C4CCCCC4)c4n(c3c2)CC(CC1)COc1ccccc1-4` (single isomer, unassigned) [Example 506, (7R) or (7S)-14-cyclohexyl-22-isopropyl-18-methyl-7,8-dihydro-6H-7,11-(ethanoiminopropanoiminothioiminomethano)indolo[1,2-e][1,5]benzoxazocin-15-one 17,17-dioxide], the IC50 was under 25 nM. `COc1cccc2c1OCC1Cn3c-2c(C2CCCCC2)c2ccc(cc23)C(=O)NS(=O)(=O)N(C)CCOCCN1C` [Example 519, (7R)-14-cyclohexyl-4-methoxy-18,24-dimethyl-7,8-dihydro-6H-7,11-(epiminoethanooxyethanoiminothioiminomethano)indolo[1,2-e][1,5]benzoxazocin-15-one 17,17-dioxide]: the IC50 lay within 25 to 150 nM. For the molecule `COc1cccc2c1OCC1CCCN(C)CCN(C)S(=O)(=O)NC(=O)c3ccc4c(C5CCCCC5)c-2n(c4c3)C1` [Example 510, (7R)-14-cyclohexyl-4-methoxy-18,21-dimethyl-7,8-dihydro-6H-7,11-(propanoiminoethanoiminothioiminomethano)indolo[1,2-e][1,5]benzoxazocin-15-one 17,17-dioxide], the IC50 is under 25 nM.

As for `CN1CCN(C)[C@H]2COc3ccccc3-c3c(C4CCCC4)c4ccc(cc4n3C2)C(=O)NS(=O)(=O)N(C)CC1` [Example 518, (7R)-14-cyclopentyl-18,21,24-trimethyl-7,8-dihydro-6H-7,11-(epiminoethanoiminoethanoiminothioiminomethano)-indolo[1,2-e][1,5]benzoxazocin-15-one 17,17-dioxide], the 50% inhibitory concentration (IC50) is under 25 nM.

With `CN1CCC(C)(C)CCN(C)S(=O)(=O)NC(=O)c2ccc3c(C4CCCCC4)c4n(c3c2)CC1COc1ccccc1-4` [Example 512, (7R)-14-cyclohexyl-18,21,21,24-tetramethyl-7,8-dihydro-6H-7,11-(epiminopentanoiminothioiminomethano)indolo[1,2-e][1,5]benzoxazocin-15-one 17,17-dioxide], the IC50 fell in the range of 150 to 500 nM.

The same assay, now with this note: Table A; activity ranges; Huh-7 replicon cells, 96 hours; read-out: IC50 (nM), Inhibition of HCV subgenomic replication.
For `CCN1CCN(CCN(C)C)C2COc3cc(F)ccc3-c3c(C4CCCCC4)c4ccc(cc4n3C2)C(=O)NS(=O)(=O)N(C)CC1` [Compound A12, (7R)-14-cyclohexyl-24-[2-(dimethylamino)ethyl]-21-ethyl-3-fluoro-18-methyl-7,8-dihydro-6H-7,11-(epiminoethanoiminoethanoiminothioiminomethano)-indolo[1,2-e][1,5]benzoxazocin-15-one 17,17-dioxide], the IC50 is under 25 nM. As to `CN1CCCCN(C)S(=O)(=O)NC(=O)c2ccc3c(C4CCCCC4F)c4n(c3c2)CC(COc2ccccc2-4)C1` (single isomer, unassigned) [Compound A16, (7R,S)-14-[(1R,2S) or (1S,2R)-2-fluorocyclohexyl]-18,23-dimethyl-7,8-dihydro-6H-11,7-(methanoiminothioiminobutanoiminomethano)indolo[1,2-e][1,5]benzoxazocin-15-one 17,17-dioxide], the IC50 lay within 25 to 150 nM. Consider `CCN1CCN(C)C2COc3c(CN4CCCCC4)cccc3-c3c(C4CCCCC4)c4ccc(cc4n3C2)C(=O)NS(=O)(=O)N(C)CC1` [Compound A26, (7R)-14-cyclohexyl-21-ethyl-18,24-dimethyl-4-(piperidin-1-ylmethyl)-7,8-dihydro-6H-7,11-(epiminoethanoiminoethanoiminothioiminomethano)indolo[1,2-e][1,5]benzoxazocin-15-one 17,17-dioxide], for which the IC50 is under 25 nM.

These data come from patent US7989438B2, “Therapeutic compounds” (Istituto di Ricerche di Biologia Molecolare P. Angeletti SpA, priority 2007, dated 2011).
